Results taken from PMC8003796, “Identification of Anti-Severe Acute Respiratory Syndrome-Related Coronavirus 2 (SARS-CoV-2) Oxysterol Derivatives In Vitro” (International Journal of Molecular Sciences, 2021).
Several values for one entry are separate records, joined by “and”; a condition that tells them apart may be missing. Identical values can stand only once. Like-named read-outs stand apart in the source and are kept apart here.

Columns and labels:
[1] = tested on: SARS-CoV-2; assay: SARS-CoV-2 infection assay, viral RNA in culture supernatant by real-time RT-PCR; format: cell-based, SARS-CoV-2 Wk-521 strain; details: for IC90: Severe acute respiratory syndrome coronavirus 2, read-out: IC90 (90% maximal inhibitory concentration); for IC90 / IC50: viral RNA in culture supernatant, VeroE6/TMPRSS2 cells; for IC50: Severe acute respiratory syndrome coronavirus 2, read-out: IC50 (50% maximal inhibitory concentration); for effect on viral RNA level (in words): semi-synthetic oxysterols, up to 15 μM; for effect of pathway inhibitors on viral RNA (in words) / reduction of viral replication: 10 μM; for reduction of viral RNA production: 15 μM
[2] = in vitro; details: African green monkey
[3] = tested on: SARS-CoV-2; assay: Virus-induced cytopathic effect (CPE) viewed under a microscope; format: cell-based, SARS-CoV-2 Wk-521 strain; details: 48 h post-inoculation; 10 μM RDV, 30 μM cholesterol, 30 μM 7-KC, 10 μM Oxy133, 10 μM Oxy210
[4] = tested on: SARS-CoV-2; assay: Viral N protein by indirect immunofluorescence; format: cell-based, SARS-CoV-2 Wk-521 strain; details: 10 μM RDV, 30 μM cholesterol, 30 μM 7-KC, 10 μM Oxy133, 10 μM Oxy210
[5] = tested on: SARS-CoV-2; assay: Time of addition assay (whole life cycle, entry, post-entry); format: cell-based, SARS-CoV-2 Wk-521 strain; details: 10 μM Oxy210, 10 μM Oxy133
[6] = tested on: hepatitis C virus (HCV); assay: HCV replication assay, luciferase in LucNeo#2 replicon cells; format: cell-based, HCV NN strain (genotype-1b); details: 10 μM Oxy210, 1 μM sofosbuvir, 48 h
Procedure: N, nucleus; M, mitochondria; *, double-membrane vesicle.
HCV replication activity was measured using LucNeo#2 cells, carrying a subgenomic replicon RNA for an HCV NN strain (genotype-1b) and the luciferase gene driven by the HCV replication. LucNeo#2 cells were treated with the compounds indicated in Figure 3C for 48 h, and the luciferase activity was measured with Luciferase Assay System kit (Promega, Madison, WI, USA).

[7] = Pharmacokinetics in mice, single oral gavage dose; format: in vivo, balb/c mice; details: single oral dose 200 mg/kg; for Cmax: 200 mg/kg, read-out: Cmax (peak plasma concentration)
[8] = tested on: TGFβ signaling; details: fibroblastic cells and tumor cells ref 16; cited from earlier work
[9] = tested on: Hh signaling; details: fibroblastic cells and tumor cells ref 16; cited from earlier work
[10] = tested on: VeroE6/TMPRSS2 cells; assay: Cell viability by MTT assay; details: up to 15 μM
[11] = tested on: SARS-CoV-2; assay: Electron microscopy of double-membrane vesicle formation in infected cells; details: 10 μM, VeroE6/TMPRSS2 cells, MOI 1, 7 h
[12] = tested on: TGFβ signaling; assay: TGFβ activity, CTGF mRNA in NIH3T3 cells; format: cell-based; details: 10 μM, NIH3T3 cells stimulated with 20 ng/mL TGFβ
Procedure: (§1) Scale bar, 100 μm. (B) Viral N protein in the cells was detected by immunofluorescence analysis as described in Figure 1C. Scale bar, 50 μm. (C) Dose-response curves for viral RNA upon treatment with oxysterol derivatives as indicated. The secreted viral RNA in the culture supernatant at 24 h post-inoculation was quantified by real-time RT-PCR and plotted against compound concentration. The chemical structures of oxysterols are also shown above the graphs. (D) Viability of cells treated with the compounds was quantified using an MTT assay. (E,F) Inhibitory effects toward transforming growth factor β (TGFβ) and hedgehog (Hh) signaling. […] Cellular mRNAs were extracted to quantify a TGFβ-downstream gene, connective tissue growth factor (CTGF) (E), a Hh target gene, Gli1 (F), and Oaz1 for normalization of CTGF and Gli1 (E,F).
(§2) TGFβ activity was examined with NIH3T3 cells precultured with DMEM containing 0.1% bovine calf serum (BCS) overnight. NIH3T3 cells were pretreated with the compounds for 2 h and then stimulated with TGFβ1 (20 ng/mL) in the presence or absence of compounds. After 48 h, RNA was extracted from the cells and analyzed for quantifying the mRNA for a TGFβ target gene, connective tissue growth factor (CTGF), and Oaz1 for normalization. […] Cellular RNA was extracted and analyzed for the expression of a Hh target gene, Gli1, and normalized to Oaz1 expression.

[13] = tested on: Hh signaling; assay: Hedgehog activity, Gli1 mRNA in NIH3T3 cells; format: cell-based; details: 10 μM, CAPAN-1 conditioned medium containing Shh
Procedure: as §1, §2

## CCCCCC[C@@](C)(O)[C@H]1CC[C@H]2[C@@H]3C[C@H](O)[C@H]4C[C@@H](O)CC[C@]4(C)[C@H]3CC[C@@]21C [Oxy133]
[1]; 24 h post-inoculation
  IC90: > 15 µM
  IC50: > 15 µM
  effect on viral RNA level (in words): did not show antiviral activity up to 15 μM
[2]
  CC50: > 15 µM

## NC(=O)c1ccc(-c2nc(-c3ccc4c(c3)OCO4)c(-c3ccccn3)[nH]2)cc1 [SB431542, reference compound]
[1]; 24 h post-inoculation
  effect of pathway inhibitors on viral RNA (in words): did not significantly inhibit the production of viral RNA

## C[C@]12CC[C@H]3[C@@H](CC=C4C[C@@H](O)CC[C@@]43C)[C@@H]1CC[C@@H]2[C@](C)(O)CCc1cccnc1 [Oxy210]
[1]
  reduction of viral replication: more than 90%
[1]; 24 h post-inoculation
  reduction of viral RNA production: 99.4% and > 99%
  IC90: 8.6 µM
  IC50: 5.5 µM
  effect on viral RNA level (in words): reduced viral RNA level in a dose-dependent manner
[3]
  effect on SARS-CoV-2-induced CPE (in words): blocked
[4]
  effect on virus propagation / spread of infection, N protein (in words): blocked
[5]; 24 h
  viral RNA, compound present in the whole life cycle (in words): clearly reduced viral RNA levels
[5]; 15 μM RDV, added 2 h post-inoculation for 21 h
  viral RNA, compound present post-entry (in words): clearly reduced viral RNA levels
[6]
  HCV replication, luciferase activity (in words): reduced the DMV-dependent RNA replication of HCV
[7]; balb/c, mouse, in vivo, po, plasma
  Cmax: 8160 ng/mL and 19.4 µM
[7]; balb/c, mouse, in vivo, plasma
  MRT: 3.5 h
  Tmax: 1 h
[7]; balb/c, mouse, in vivo, plasma, read-out: AUC (AUCinf)
  AUC(0-inf): 29300 ng·h/mL
[7]
  tolerability (in words): well tolerated
[7]; plasma
  Cmax: ~19 µM
[8]
  inhibition of TGFβ signaling (in words): inhibited
[9]
  inhibition of Hh signaling (in words): inhibited
[2]
  CC50: > 15 µM
[10]
  cytotoxicity / cell viability (in words): No significant cytotoxicity
[11]
  DMV formation in SARS-CoV-2-infected cells (in words): remarkably reduced the DMV formation

## CS(=O)(=O)c1ccc(C(=O)Nc2ccc(Cl)c(-c3ccccn3)c2)c(Cl)c1 [GDC0449, reference compound]
[1]; 24 h post-inoculation
  effect of pathway inhibitors on viral RNA (in words): did not decrease the viral RNA levels

## CC[C@@](O)(CCc1cccnc1)[C@H]1CC[C@H]2[C@@H]3CC[C@H]4C[C@@H](O)CC[C@]4(C)[C@H]3CC[C@]12C [Oxy232]
[1]
  reduction of viral replication: more than 90%
[1]; 24 h post-inoculation
  reduction of viral RNA production: 99.9% and > 99%
  IC90: 7.8 µM
  IC50: 5.4 µM
  effect on viral RNA level (in words): reduced viral RNA level in a dose-dependent manner
[12]
  inhibition of TGFβ signaling (CTGF mRNA, in words): devoid of significant TGFβ inhibitory properties
[13]
  inhibition of Hh signaling (Gli1 mRNA, in words): retains inhibitory activity toward Hh signaling
[2]
  CC50: > 15 µM
[10]
  cytotoxicity / cell viability (in words): slightly reduced cell viability when used at concentrations above 10 μM

## CC(C)CC[C@H](O)[C@@H](C)[C@H]1CC[C@H]2[C@@H]3CC=C4C[C@@H](O)CC[C@]4(C)[C@H]3CC[C@]12C [22(S)-OHC, 22(S)-hydroxycholesterol]
[1]; 24 h post-inoculation
  IC90: > 30 µM
  IC50: > 30 µM
[1]; concentrations up to 30 μM, 24 h post-inoculation
  effect on viral RNA (in words): did not show apparent reductions in viral RNA
[2]
  CC50: > 30 µM

## C[C@@H](CO)CCC[C@@H](C)[C@H]1CC[C@H]2[C@@H]3CC=C4C[C@@H](O)CC[C@]4(C)[C@H]3CC[C@]12C [27-OHC, 27-hydroxycholesterol]
[1]; 24 h post-inoculation
  IC90: > 30 µM
  IC50: 3.5 µM
[1]; natural oxysterols, concentrations up to 30 μM, 24 h post-inoculation
  reduction of the production of viral RNA as compared to control: 80%–86%
[2]
  CC50: > 30 µM
